What all share (assay type): in vivo
Data set [1] relates to barnyard grass (Echinochloa crus-galli Beauv.), Ec. Kind of data set: Test Example 4: herbicidal effect on upland weeds after emergence. To be noted: dosage 5 kg/ha; sprayed after emergence; judged 14 days after treatment. The text has this:
(§1) Herbicidal Effect on Upland Weeds After Emergence Polyethylene-made vats having a size of 10 cm (length)×20 cm (width)×5 cm (height) were filled with soil, sown with seeds of the following noxious upland weeds and with seeds of soybean plant and wheat as upland crop plants, and then covered with soil. The plants were made to grow up until they reached the leaf-stages mentioned below, after which an agent comprising a prescribed concentration of a compound of the present invention (listed in Tables 1 to 14) as active ingredient was sprayed. Fourteen days after the treatment, the herbicidal effect was investigated, from which weed-killing rate was calculated in the same manner as in Test Example 1 and the results were judged. […] Sample weeds, their leaf stages, and leaf stages of soybean plant and wheat were as follows: [table]

The test system of data set [2] is forxtail grass (Alopecurus aequalis var. amurensis Ohwi), Am. Described as above. To be noted: dosage 5 kg/ha; sprayed after emergence; judged 14 days after treatment.
Description: as §1

For data set [3], the system named is velvetleaf (Abutilon theophtasti L.), At. The data set is described as above. To be noted: dosage 5 kg/ha; sprayed after emergence; judged 14 days after treatment.
Description: as §1

Data set [4] has as its system cocklebur (Xanthium strumarium L.), Xs. The data set is described as above. To be noted: dosage 5 kg/ha; sprayed after emergence; judged 14 days after treatment.
Description: as §1

Data set [5] deals with bird's eye speedwell (Veronica persica Poir.), Vp. The description is as above. To be noted: dosage 5 kg/ha; sprayed after emergence; judged 14 days after treatment.
Description: as §1

Data set [6] concerns cleavers (Galium aparine L.), Ga. The description is as above. To be noted: dosage 5 kg/ha; sprayed after emergence; judged 14 days after treatment.
Description: as §1

In the next data set the test system is wheat (Wh). The data set can be described thus: Test Example 3: phytotoxicity to upland crop plants, treatment before emergence. The conditions noted are these: dosage 5 kg/ha. On the procedure:
(§2) Herbicidal Effect on Upland Weeds Before Emergence […] Then, a liquid preparation of an agent comprising a prescribed concentration of a compound of the present invention (the compounds listed in Tables 1-14) as active ingredient was sprayed. Fourteen days after the treatment, the herbicidal effect was investigated, from which weed-killing rate was calculated in the same manner as in Test Example 1, and the herbicidal effect was judged. At the same time, phytotoxicity to soybean plant and wheat was investigated and judged according to the criterion mentioned below.

Another data set relates to soybean plant (So). The description is as above. The conditions noted are these: dosage 5 kg/ha. On the procedure:
as §2

The next data set concerns soybean plant. Kind of data set: Test Example 4: phytotoxicity to upland crop plants, treatment after emergence. To be noted: dosage 5 kg/ha, sprayed after emergence, judged 14 days after treatment.
Description: as §1

A further data set concerns wheat. Described as above. To be noted: dosage 5 kg/ha, sprayed after emergence, judged 14 days after treatment.
Description: as §1

Data set [7] relates to barnyard grass (Echinochloa crus-galli Beauv.). The data set can be described thus: Test Example 1: herbicidal effect on paddy field weeds before emergence. To be noted: Dosage 5 kg/ha. On the procedure:
(§3) Test for Herbicidal Effect on Paddy Field Weeds Before Emergence Soil was filled into 1/10000 are pots and brought into a state of paddy field, in which seeds of barnyard grass (Echinochloa crus-galli Beauv.) and bulrush (Scirpus juncoides Roxb.) were made to be before germination. The soil in the pots were treated with a solution containing a predetermined dosage of a chemical agent comprising a compound of the present invention listed in Tables 1 to 14. Twenty one days after the treatment, the herbicidal effect was investigated, the result was compared with that in untreated plot to calculate the weed-controlling rate, and the herbicidal effect was judged according to the following criterion: […]

The subject of data set [8] is bulrush (Scirpus juncoides Roxb.). The data set is described as above. The conditions noted are these: Dosage 5 kg/ha. On the procedure:
as §3

The subject of data set [9] is barnyard grass (Echinochloa crus-galli Beauv.), Ec. The data set can be described thus: Test Example 3: herbicidal effect on upland weeds before emergence. To be noted: dosage 5 kg/ha. On the procedure: (§4) Herbicidal Effect on Upland Weeds Before Emergence […] Then, a liquid preparation of an agent comprising a prescribed concentration of a compound of the present invention (the compounds listed in Tables 1-14) as active ingredient was sprayed. Fourteen days after the treatment, the herbicidal effect was investigated, from which weed-killing rate was calculated in the same manner as in Test Example 1, and the herbicidal effect was judged.

For data set [10], the system named is forxtail grass (Alopecurus aequalis var. amurensis Ohwi), Am. The data set is described as above. To be noted: foxtail grass, dosage 5 kg/ha. On the procedure:
as §4

Data set [11] concerns velvetleaf (Abutilon theophtasti L.), At. The data set is described as above. The conditions noted are these: dosage 5 kg/ha. On the procedure:
as §4

In data set [12] the test system is cocklebur (Xanthium strumarium L.), Xs. Described as above. To be noted: dosage 5 kg/ha. On the procedure:
as §4

Data set [13] concerns bird's eye speedwell (Veronica persica Poir.), Vp. The description is as above. The conditions noted are these: dosage 5 kg/ha. On the procedure: as §4
Data set [14] relates to cleavers (Galium aparine L.), Ga. Described as above. The conditions noted are these: dosage 5 kg/ha. On the procedure: as §4
Data set [15] relates to barnyard grass (Echinochloa crus-galli Beauv.). The data set can be described thus: Test Example 2: herbicidal effect on paddy field weeds after emergence. To be noted: Dosage 5 kg/ha; one-leaved stage; 21 days after treatment. On the procedure: (§5) Test for Herbicidal Effect on Paddy Field Weeds After Emergence. Soil was filled into 1/10000 are pots and brought into a state of paddy field, in which seeds of barnyard grass (Echinochloa crus-galli Beauv.), bulrush (Scirpus juncoides Roxb.) and monochoria (Monochoria vaginalis Presl) were made to reach one-leaved stage. The soil in the pots were treated with a solution containing a predetermined dosage of a chemical agent comprising a compound of the present invention listed in Tables 1 to 14. Twenty one days after the treatment, the herbicidal effect was investigated and the result was compared with that in untreated plot to calculate the weed-controlling rate, and the herbicidal effect was judged according to the same criterion as in Test Example 1.

For data set [16], the system named is bulrush (Scirpus juncoides Roxb.). The description is as above. The conditions noted are these: Dosage 5 kg/ha; one-leaved stage; 21 days after treatment. On the procedure:
as §5

Data set [17] concerns monochoria (Monochoria vaginalis Presl). The data set is described as above. The conditions noted are these: Dosage 5 kg/ha; one-leaved stage; 21 days after treatment. On the procedure:
as §5

Turning to `CCc1ccc(Cl)c(CC)c1NC(=O)c1cc2ccccc2nc1C(=O)NC` [359-1], the “Herbicidal effect Ec” value in [1] and in [9] was 5 (Weed-killing rate is 100%.) in each case. In addition, the “Herbicidal effect Am” value in data set [2] and in [10] was 5 (Weed-killing rate is 100%.) each time. Further, the “Herbicidal effect At” value in data set [3] and in data set [11] was 5 (Weed-killing rate is 100%.) each time. In addition, the “Herbicidal effect Xs” value in [4] and in data set [12] was 5 (Weed-killing rate is 100%.) each time. The “Herbicidal effect Vp” value in data set [5] and in data set [13] was 5 (Weed-killing rate is 100%.) throughout. Besides, the “Herbicidal effect Ga” value in data set [6] and in data set [14] was 5 (Weed-killing rate is 100%.) throughout. In addition, the entries for the “Phytotoxicity Wh” value with wheat (Wh) and in the data set on wheat were 0 (Crop-killing rate is 0-20% (No Phytotoxicity).) and 2 (Crop-killing rate is 40-69%.), respectively. Further, the “Phytotoxicity So” value was 0 (Crop-killing rate is 0-20% (No Phytotoxicity).) with soybean plant (So) and 3 (Crop-killing rate is 70-89%.) in the data set on soybean plant. The “Pre-emergence treatment Barnyard grass (herbicidal effect)” value (shortened to “Pre-emergence treatment Barnyard grass”) in data set [7] is listed as 5 (Weed-killing rate is 100%.). In addition, the “Pre-emergence treatment Bulrush (herbicidal effect)” value (shortened to “Pre-emergence treatment Bulrush”) in [8] is reported as 5 (Weed-killing rate is 100%.). Also, in [15], the “Post-emergence treatment Barnyard grass (herbicidal effect)” value (“Post-emergence treatment Barnyard grass” below) is on record as 5 (Weed-killing rate is 100%.). Moreover, in [16], the “Post-emergence treatment Bulrush (herbicidal effect)” value (from here on “Post-emergence treatment Bulrush”) is listed as 5 (Weed-killing rate is 100%.). Further, the “Post-emergence treatment Monochoria (herbicidal effect)” value (“Post-emergence treatment Monochoria” below) in data set [17] is 5 (Weed-killing rate is 100%.).
For `CCNC(=O)c1nc2ccccc2cc1C(=O)Nc1c(CC)ccc(Cl)c1CC` [359-2], the “Herbicidal effect Ec” value in data set [1] and in [9] was 5 (Weed-killing rate is 100%.) throughout. Also, the “Herbicidal effect Am” value in data set [2] and in [10] was 5 (Weed-killing rate is 100%.) throughout. The “Herbicidal effect At” value in [3] and in data set [11] was 5 (Weed-killing rate is 100%.) in each case. Besides, the “Herbicidal effect Xs” value in data set [4] and in [12] was 5 (Weed-killing rate is 100%.) throughout. For the same compound, the “Herbicidal effect Vp” value in data set [5] and in data set [13] was 5 (Weed-killing rate is 100%.) each time. Further, the “Herbicidal effect Ga” value in [6] and in [14] was 5 (Weed-killing rate is 100%.) in each case. The “Phytotoxicity Wh” value was 0 (Crop-killing rate is 0-20% (No Phytotoxicity).) in the data set with wheat (Wh) and 3 (Crop-killing rate is 70-89%.) in the data set on wheat. For the same compound, the “Phytotoxicity So” value is reported as 1 (Crop-killing rate is 1-39%.) in the data set with soybean plant (So) and 4 (Crop-killing rate is 90-99%.) in the data set on soybean plant. The “Pre-emergence treatment Barnyard grass” value in data set [7] was 5 (Weed-killing rate is 100%.). The “Pre-emergence treatment Bulrush” value in [8] is recorded as 5 (Weed-killing rate is 100%.). The “Post-emergence treatment Barnyard grass” value in data set [15] was 5 (Weed-killing rate is 100%.). In data set [16], the “Post-emergence treatment Bulrush” value is listed as 5 (Weed-killing rate is 100%.). The “Post-emergence treatment Monochoria” value in [17] is 5 (Weed-killing rate is 100%.).
Regarding `CCCNC(=O)c1nc2ccccc2cc1C(=O)Nc1c(CC)ccc(Cl)c1CC` [359-3], the “Herbicidal effect Ec” value in [1] and in data set [9] was 5 (Weed-killing rate is 100%.) each time. Moreover, the “Herbicidal effect Am” value in data set [2] and in data set [10] was 5 (Weed-killing rate is 100%.) throughout. Besides, the “Herbicidal effect At” value in data set [3] and in data set [11] was 5 (Weed-killing rate is 100%.) each time. Besides, the “Herbicidal effect Xs” value in [4] and in data set [12] was 5 (Weed-killing rate is 100%.) in each case. For the same compound, the “Herbicidal effect Vp” value in data set [5] and in data set [13] was 5 (Weed-killing rate is 100%.) each time. Moreover, the “Herbicidal effect Ga” value in [6] and in [14] was 5 (Weed-killing rate is 100%.) each time. Moreover, the entries for the “Phytotoxicity Wh” value with wheat (Wh) and in the data set on wheat were 0 (Crop-killing rate is 0-20% (No Phytotoxicity).) and 2 (Crop-killing rate is 40-69%.), respectively. Also, the “Phytotoxicity So” value in the data set on soybean plant (So) is listed as 0 (Crop-killing rate is 0-20% (No Phytotoxicity).); in the data set with soybean plant it was 3 (Crop-killing rate is 70-89%.). Moreover, the “Pre-emergence treatment Barnyard grass” value in [7] is given as 5 (Weed-killing rate is 100%.). Also, the “Pre-emergence treatment Bulrush” value in [8] was 5 (Weed-killing rate is 100%.). Further, the “Post-emergence treatment Barnyard grass” value in data set [15] is reported as 5 (Weed-killing rate is 100%.). In data set [16], the “Post-emergence treatment Bulrush” value is 5 (Weed-killing rate is 100%.). Besides, in data set [17], the “Post-emergence treatment Monochoria” value is listed as 5 (Weed-killing rate is 100%.).
For `CCc1ccc(Cl)c(CC)c1NC(=O)c1cc2ccccc2nc1C(=O)NC(C)(C)C` [359-4], the “Herbicidal effect Ec” value in [1] and in [9] was 5 (Weed-killing rate is 100%.) throughout. Further, the “Herbicidal effect Am” value in data set [2] and in data set [10] was 5 (Weed-killing rate is 100%.) throughout. Moreover, the “Herbicidal effect At” value in [3] and in [11] was 5 (Weed-killing rate is 100%.) in each case. The “Herbicidal effect Xs” value in [4] and in [12] was 5 (Weed-killing rate is 100%.) throughout. In addition, the “Herbicidal effect Vp” value in data set [5] and in data set [13] was 5 (Weed-killing rate is 100%.) throughout. The “Herbicidal effect Ga” value in data set [6] and in data set [14] was 5 (Weed-killing rate is 100%.) throughout. Besides, the results for the “Phytotoxicity Wh” value with wheat (Wh) and with wheat were 0 (Crop-killing rate is 0-20% (No Phytotoxicity).) and 2 (Crop-killing rate is 40-69%.), respectively. Besides, the “Phytotoxicity So” value is 2 (Crop-killing rate is 40-69%.) in the data set on soybean plant (So) and 4 (Crop-killing rate is 90-99%.) in the data set with soybean plant. Also, in [7], the “Pre-emergence treatment Barnyard grass” value is listed as 5 (Weed-killing rate is 100%.). Besides, the “Pre-emergence treatment Bulrush” value in data set [8] is reported as 5 (Weed-killing rate is 100%.). Besides, in [15], the “Post-emergence treatment Barnyard grass” value is on record as 5 (Weed-killing rate is 100%.). Also, the “Post-emergence treatment Bulrush” value in data set [16] is 5 (Weed-killing rate is 100%.). Besides, the “Post-emergence treatment Monochoria” value in data set [17] is recorded as 5 (Weed-killing rate is 100%.).

The record behind these values is patent publication US6444617B1, “Fused-heterocycle dicarboxylic acid diamide derivatives or salts thereof, herbicide and usage thereof” (Nihon Nohyaku Co., Ltd., priority 1998, dated 2002).
